Test results as given in US7838528B2, “Substituted bicyclic 8-pyrrolidinoxanthines, methods for their production, pharmaceutical formulations and their use” (sanofi-aventis Deutschland GmbH, priority 2004, dated 2010).
Counter-ions that a name gives are not always drawn.

Biological target: T1, DPP-IV from porcine kidney (Sus scrofa, UniProt P22411)
T1 construct: DPP-IV from porcine kidney (Sigma Chemical GmbH, Munich DE); purchased Sigma Chemical GmbH, Munich DE; host or cells: porcine kidney (tissue-derived enzyme)
T1 sequence (P22411 whole entry): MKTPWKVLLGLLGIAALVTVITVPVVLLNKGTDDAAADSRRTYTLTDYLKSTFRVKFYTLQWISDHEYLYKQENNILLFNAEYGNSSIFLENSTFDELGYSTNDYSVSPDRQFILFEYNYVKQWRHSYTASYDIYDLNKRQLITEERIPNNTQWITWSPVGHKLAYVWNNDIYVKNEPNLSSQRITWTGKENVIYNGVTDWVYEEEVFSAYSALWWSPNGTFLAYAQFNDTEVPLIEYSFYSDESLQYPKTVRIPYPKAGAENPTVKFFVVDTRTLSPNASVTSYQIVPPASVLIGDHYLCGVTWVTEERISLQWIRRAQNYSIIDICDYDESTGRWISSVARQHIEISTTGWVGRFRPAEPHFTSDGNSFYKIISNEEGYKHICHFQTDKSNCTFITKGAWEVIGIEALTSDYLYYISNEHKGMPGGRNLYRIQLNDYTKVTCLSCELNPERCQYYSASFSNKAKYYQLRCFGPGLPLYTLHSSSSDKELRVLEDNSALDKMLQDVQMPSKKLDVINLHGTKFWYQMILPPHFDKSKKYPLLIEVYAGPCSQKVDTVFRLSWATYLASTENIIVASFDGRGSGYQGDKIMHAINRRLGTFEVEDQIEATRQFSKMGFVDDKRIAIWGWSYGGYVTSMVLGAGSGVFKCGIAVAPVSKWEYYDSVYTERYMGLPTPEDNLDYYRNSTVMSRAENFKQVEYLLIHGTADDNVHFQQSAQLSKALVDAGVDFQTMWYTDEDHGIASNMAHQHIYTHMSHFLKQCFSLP
Test: Measurement of the DPP-IV activity (H-Ala-Pro-AFC fluorimetric assay)
Type: biochemical
Conditions: H-Ala-Pro-AFC 15 μM, DPP-IV 1 mU/ml, Tris/HCl pH 7.4, room temperature
Protocol: Measurement of the DPP-IV Activity: […]
a) DPP-IV from porcine kidney (Sigma Chemical GmbH, Munich DE) b) H-Ala-Pro-AFC (Bache Chemical Co., Weil am Rheine DE) […]
c) DPP-IV (1 mU/ml, final concentration) d) H-Ala-Pro-AFC (15 μM, final concentration) • in Tris/HCl (40 mM, pH 7.4), total volume 0.2 ml The reaction was carried out at room temperature at different reaction times (typically 10 min) and stopped at the end of the reaction by adding 20 μl of ZnCl2 (1 M). The H-Ala-Pro-AFC conversion was determined fluorimetrically by measuring the emission at 535 nm after excitation at 405 nm. When inhibitors were added, the added buffer volume was adapted so that a total volume of 200 μl was maintained for the assay mixture.
IC50 values for inhibitors were determined by varying the inhibitor concentrations with the stated substrate concentration of 15 μM. Ki and Km values were found by appropriate variation of substrate concentration and inhibitor concentration as described (Dixon, M. and Webb, E. C. (1979) Enzymes, third edition, pp. 47-206, Academic Press) which is herein incorporated by reference. The values for Km, IC50 and Ki were calculated using a commercially available software package (Leatherbarrow, R. J. (1992) GraFit Version 3.0, Erithacus Software Ltd. Staines, U.K.).

| SMILES | IC50 [µM] |
| --- | --- |
| CC(C)=CCn1c(N2CC[C@@H]3NCC[C@@H]32)nc2c1c(=O)n(CC(=O)c1ccccc1)c(=O)n2C (single isomer, unassigned) [Example 1a, 8-(cis-Hexahydro-pyrrolo[3,2-b]pyrrol-1-yl)-3-methyl-7-(3-methyl-but-2-enyl)-1-(2-oxo-2-phenyl-ethyl)-3,7-dihydro-purine-2,6-dione] | 0.16 |
| CC(C)=CCn1c(N2CC[C@@H]3NCC[C@@H]32)nc2c1c(=O)n(CC(=O)c1ccccc1)c(=O)n2C (single isomer, unassigned) [Example 1b, 8-(cis-Hexahydro-pyrrolo[3,2-b]pyrrol-1-yl)-3-methyl-7-(3-methyl-but-2-enyl)-1-(2-oxo-2-phenyl-ethyl)-3,7-dihydro-purine-2,6-dione] | 0.018 |
| CC(C)=CCn1c(N2CC[C@@H]3NCC[C@@H]32)nc2c1c(=O)n(CC(=O)c1ccccc1)c(=O)n2C (relative stereo) [Example 1, 8-(cis-Hexahydro-pyrrolo[3,2-b]pyrrol-1-yl)-3-methyl-7-(3-methyl-but-2-enyl)-1-(2-oxo-2-phenyl-ethyl)-3,7-dihydropurine-2,6-dione hydrochloride] | 0.034 |
